PubChem BioAssay AID179 (DTP/NCI, 2004)
Activity calls are given as the source filed them.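 Rule for the calls: active = compounds giving half or more protection of infected cells from virus-caused growth loss, again on retest; inactive = the rest.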

System: CEM cells HIV-1 protection, formazan growth assay
Experiment: NCI AIDS Antiviral Assay
Settings: for IC50: measured here: growth of uninfected CEM cells
Method in brief: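 Category rules: moderately active means at least 50% protection on retest, and confirmed active means 100% protection reproducibly. The underlying data came from a formazan growth assay in HIV-1-infected CEM cells.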

Row | SMILES | outcome | EC50 | IC50
1 | COc1ccc2nc3cc(Cl)ccc3c(NCCC[N+](C)(C)CCCCCCCCCCCCCCCC[N+](C)(C)CCCNc3c4ccc(Cl)cc4nc4ccc(OC)cc34)c2c1 | inactive | – | –
2 | CN(C)c1ccc2cc3ccc(N(C)C)cc3nc2c1 | – | > 200 µM | 0.309 µM
3 | O=C1/C(=C/c2ccc(Cl)cc2)CCC/C1=C\c1ccc(O)c(CN2CCCCC2)c1 | – | > 100 µM | 5.25 µM
4 | COc1cc(C)c(Cc2cnc(N)nc2N)cc1OC | – | > 200 µM | > 200 µM
5 | CC(C)(C)[Si](C)(C)OCCOCn1cc(F)c(=O)[nH]c1=O | – | > 200 µM | > 200 µM
6 | CC(C)(C)OC(=O)NC(Cc1ccc(O)cn1)C(=O)O (configuration not stated) | – | > 200 µM | > 200 µM
7 | CC(C)C(/C=C/c1ccc(Cl)cc1)=N\NC(=S)NN | – | > 200 µM | 12 µM
8 | CCN1C[C@]2(C)CCC(OC)C34[C@@H]1[C@@]1(OCO[C@@]15C[C@H](OC)[C@@H]1C[C@]3(O)[C@@H]5C1OC(C)=O)[C@@H](OC(C)=O)[C@@H]42 (some centres not stated) | inactive | – | –
9 | CC1(c2ccc3ccccc3c2)OC(=O)c2cccc(F)c21 (configuration not stated) | inactive | – | –
10 | COc1ccc2nc3ccc(OC)cc3c(S(=O)CCCl)c2c1 (configuration not stated) | – | > 200 µM | 3.63 µM
11 | CCOP1(=O)C=C(Sc2ccc([N+](=O)[O-])cc2[N+](=O)[O-])C(C)(C)O1 (configuration not stated) | – | > 200 µM | 110 µM
12 | COc1ccc(-n2c(=O)n(C)c(=O)n2-c2ccc(OC)cc2)cc1 | – | > 200 µM | > 200 µM
13 | COc1ccccc1N1CCN(CCc2c[nH]c3cc4c(cc23)OCO4)CC1 | – | > 132 µM | 7.41 µM
14 | Clc1ccc(NC(Nc2ccc(Cl)cc2)C(Cl)(Cl)Cl)cc1 | inactive | – | –
15 | COc1ccc(C(Nc2nc3c(ncn3COCCOP(=O)(OCOC(=O)C(C)(C)C)OCOC(=O)C(C)(C)C)c(=O)[nH]2)(c2ccccc2)c2ccccc2)cc1 | – | > 100 µM | 8.71 µM
16 | COc1cc2c(c3oc(=O)cc(C)c13)C(=O)[C@H](C)[C@@H](C)O2 | – | > 200 µM | 126 µM
17 | NC(=N\N=C/c1ccc(Cl)c(Cl)c1)/C(N)=N\N=C/c1ccc(Cl)c(Cl)c1 | inactive | – | –
18 | CC(=O)N1[C@H](C(=O)O)CS[C@H]1c1ccncc1 | inactive | – | –
19 | O/N=C1/C2CC3CC1(c1ccccc1)CC(/C3=N/O)/C2=N\O (configuration not stated) | – | > 200 µM | > 200 µM
20 | O=C([O-])[C+](C=Cc1cccc2ccccc12)C(=O)O | – | > 708 µM | 257 µM
21 | COc1ccc(N2C(=O)C3c4[nH]c5ccccc5c4C4c5ccccc5CC4C3C2=O)cc1 (configuration not stated) | – | > 200 µM | > 200 µM

Row | SMILES | outcome | EC50 | IC50
22 | Cc1nn(C)c(=O)[nH]c1=O | – | > 1780 µM | > 1780 µM
23 | Fc1ccc(Nc2nc(Cl)c3[nH]cnc3n2)cc1Cl | – | > 200 µM | > 200 µM
24 | O=c1oc2cccc(O)c2c(O)c1Cc1ccccc1 | – | > 200 µM | > 200 µM
25 | O=C(O)CCC(NC(=O)c1ccc(CNc2nc3cc(C(F)(F)F)ccc3nc2C(=O)O)cc1)C(=O)O (configuration not stated) | – | > 200 µM | > 200 µM
26 | O[C@H]1c2cccn2-c2ccccc2S[C@H]1c1ccccc1 | – | > 83.2 µM | 43.7 µM
27 | CCc1noc(N)c1C#N | – | > 200 µM | 182 µM
28 | CNC(=O)CN(CC(=O)O)C(=O)NC | – | > 1230 µM | > 1230 µM
29 | O=C1N2CCCSC2=NC1(c1ccccc1)c1ccccc1 | inactive | – | –
30 | O=[N+]([O-])c1cc(S(=O)(=O)c2ccc(Cl)c([N+](=O)[O-])c2)ccc1Cl | – | > 200 µM | 2.34 µM
31 | CN1CCC23c4c5ccc(O)c4OC2C(=NN=C2CCC4(O)C6Cc7ccc(O)c8c7C4(CCN6C)C2O8)CCC3(O)C1C5 (configuration not stated) | – | > 200 µM | 105 µM
32 | O=C1c2sc(-c3ccc(Cl)cc3)cc2-n2cccc21 | – | > 151 µM | > 151 µM
33 | Cc1ccc2cccc3c2c1CC1(C3=O)S(=O)(=O)OCCOS1(=O)=O | – | > 200 µM | > 200 µM
34 | C=CCN1C(=O)CS/C1=N\NC(=O)Cc1nc2ccccc2[nH]1 | – | > 275 µM | > 275 µM
35 | CC(C(=O)N1C(=O)N(C(=O)C(C)C(O)c2ccccc2)C(c2ccccc2)C1c1ccccc1)C(O)c1ccccc1 (configuration not stated) | – | > 200 µM | 28.2 µM
36 | CC1(C)C2CCC(C2)C1/C=C1/SC(=S)NC1=O (configuration not stated) | – | > 200 µM | 10 µM
37 | Cc1ccc(N2C(=O)/C(=c3\s/c(=C(/N)O)c(=N)n3-c3ccccc3)SC2=S)cc1 | – | > 4.57 µM | > 4.57 µM
38 | CCOC(=O)/C(=C\c1ccco1)C(C)=O | – | > 240 µM | > 240 µM
39 | O=S(=O)(F)c1cc(Cl)ccc1C[P+](c1ccccc1)(c1ccccc1)c1ccccc1 | – | > 200 µM | 64.6 µM
40 | COc1ccc(NC(=O)CC(=O)N2N=C(N3c4ccccc4Sc4ccccc43)CC2c2ccccc2)cc1 (configuration not stated) | inactive | – | –
41 | COc1ccc(/C=C2/SC(c3c(O)ccc4ccccc34)N(NC(=O)CCCCCCCCC(=O)NN3C(=O)/C(=C\c4ccc(OC)c(OC)c4)SC3c3c(O)ccc4ccccc34)C2=O)cc1OC (configuration not stated) | – | > 200 µM | 8.51 µM
42 | Cc1ccc(NC(=S)Nc2ccc(C)cn2)nc1 | – | > 200 µM | > 200 µM

Row | SMILES | outcome | EC50 | IC50
43 | COC(=O)[C@]1(C)CCC[C@]2(C)c3cc(C(C)=O)c(C(C)C)cc3CC[C@@H]12 | – | > 200 µM | 25.7 µM
44 | CCC/C=C/C=C\C(=O)O[C@@H]1[C@@H](C)[C@]2(O)[C@@H]3C=C(C)C(=O)[C@H]3CC(COC(C)=O)=C[C@H]2[C@@H]2C(C)(C)[C@]12OC(C)=O | inactive | – | –
45 | N=c1c2ccccc2nc2oc3cc([N+](=O)[O-])ccc3n12 | – | > 195 µM | 138 µM
46 | CC(C)=CCNc1ncnc2c1ncn2CCC#N | – | > 200 µM | > 200 µM
47 | CNC(=O)CNC(=O)CCC(=O)N(C)C | – | > 200 µM | > 200 µM
48 | CN1C(=O)/C(=N/N(c2ccccc2)c2ccccc2)c2ccccc21 | – | > 200 µM | > 200 µM
49 | Cc1cc(O)c(/C=N/c2nc(-c3ccc([N+](=O)[O-])cc3)cs2)c(=O)o1 | – | > 200 µM | > 200 µM
50 | Cc1cccc(NC(=O)C(=O)C2C(=O)NC(=O)NC2=O)c1C | – | > 832 µM | 794 µM
51 | Cc1nc(N)nc2c1CCC(O)S2 (configuration not stated) | – | > 200 µM | 1.02 µM
52 | Cc1occc1C(=S)Nc1ccc(Cl)c(COC(C)(C)C)c1 | – | 5.13 µM | 29.5 µM
53 | Cc1cccc(NC(=O)NCCOC(=O)OCCNC(=O)Nc2cccc(C)c2C)c1C | – | > 200 µM | > 200 µM
54 | OCC1OC(n2cnc3cccnc32)CC1O (configuration not stated) | – | > 200 µM | > 200 µM
55 | COC1/C=C\OC2(C)Oc3c(C)c(O)c4c(O)c(c(CN(C)C)c(O)c4c3C2=O)NC(=O)/C(C)=C\C=C/C(C)C(O)C(C)C(O)C(C)C(OC(C)=O)C1C (configuration not stated) | inactive | – | –
56 | COc1cc(COC(=O)N(CC(=O)O)c2ccccc2)c([N+](=O)[O-])cc1OC | – | > 646 µM | 295 µM
57 | CCCC1OC(=O)c2ccccc2S1 (configuration not stated) | – | > 200 µM | > 200 µM
58 | Cc1ccc(S(=O)(=O)NCNS(=O)(=O)c2ccc(C)cc2)cc1 | – | > 200 µM | > 200 µM
59 | CC(=O)OC1CC2C(=O)C(=O)C1(C)C2(C)C (configuration not stated) | – | > 200 µM | > 200 µM
60 | CC(=O)c1ccc(C(=O)c2ccccc2C(=O)O)cc1 | – | > 200 µM | > 200 µM
61 | Cc1nn(C(=O)c2ccncc2)c2c1C(c1cccc([N+](=O)[O-])c1)SC(N)=N2 (configuration not stated) | inactive | – | –
62 | CC1=CC(C)(C)NC(=S)N1c1ccc(C)c(N2C(=S)NC(C)(C)C=C2C)c1 | inactive | – | –
